Assay results from patent US11357740B2, “Cannabidiol for enhancing the therapeutic effect of a steroid” (STERO BIOTECHS LTD., priority 2013, dated 2022).

Columns and labels:
[1] = test system: patients undergoing allogeneic hematopoietic stem cell transplantation; test: Prevention of acute and chronic GVHD in allogeneic stem cell transplanted patients (46 patients); assay type: in vivo, human; parameters: Non-relapse mortality / Overall survival rate: concentration or dose not given beside the values
Procedure: Forty six (46) patients over 18 years of age undergoing allogeneic hematopoietic stem cell transplantation at the Rabin Medical Center in Israel were recruited. Patients having history of psychosis or asthma, or consuming Cannabis during the last two months before transplantation were excluded from the study.
All patients received standard GVHD prophylaxis consisting of cyclosporine twice a day starting on day −1 with target trough levels ≥200 ng/mL in combination with short course of methotrexate (15 mg/sqm on day +1 and 10 mg/sqm on days +3 and +6). Most patients transplanted from unrelated donors received anti-T-cell globulin (ATG Fresenius) at a low dose of 5 mg/kg on days −3 to −1.
The investigational agent, CBD (STI Pharmaceuticals, Brentwood, Essex, UK) was dissolved in olive oil at a concentration of 2.5% and was orally administered from day −7 through day +30. The starting dose of CBD was 10 mg twice a day, and doses were doubled every other day to a maximal dose of 150 mg twice a day.
To estimate the prophylactic and therapeutic effect of Cannabidiol, the patients were carefully monitored and documented for the presentation of acute and chronic GVHD symptoms, the time of onset, the severity of the symptoms, the responsiveness to treatment, and the occurrence of infections.
Furthermore, a panel of 4 serum cytokines (soluble TNF receptor 1 (sTNFRI), soluble IL-2 receptor alpha (sIL2R-alpha), hepatocyte growth factor (HGF), and IL8)) were monitored. Blood samples were taken at days −7(A), 0(B), +14(C), and +28(D). The difference in blood levels between the various time points (B-A, C-B and D-C) were assessed.
Primary end points were safety and cumulative incidence of grade 2-4 and grade 3-4 GVHD by day +100. The secondary end points were cumulative incidence of chronic and severe chronic GVHD, non-relapse mortality (NRM), relapse incidence (RI), and overall survival (OS). NRM mortality was defined as death while the patient was in CR. Cumulative incidence curves were used for acute GVHD and chronic GVHD estimation, taking into account relapse and death as competing risks. Cumulative incidence curves were used for RI and NRM taking into account disease recurrence and death as competing events. Probabilities of OS and LFS were calculated using the Kaplan-Meier estimates.

[2] = test system: patients with extensive chronic GVHD after allogeneic HCT; test: CBD treatment for chronic GVHD (12 patients); assay type: in vivo, human; conditions: oral CBD 50 mg twice a day
Procedure: Twelve patients over 18 years of age with extensive chronic GVHD after allogeneic HCT were recruited at the Rabin Medical Center in Israel. Patients having a history of psychosis or asthma, or consuming Cannabis during the last two months before transplantation were excluded from the study.
Patients were presently treated with a calcineurine inhibitor (cyclosporine or tacrolimus) with or without oral prednisone.
Patients were given oral CBD 50 mg twice a day.

[3] = test system: patients experiencing severe acute GVHD; test: Case studies: CBD for severe (grade 3-4) and/or refractory acute GVHD; assay type: in vivo, human
Procedure: This example describes cases studies that show the surprising efficacy of CBD treatment of patients experiencing severe acute GVHD.
A person with acute myeloid leukemia in second complete remission, underwent an allogeneic hematopoietic cell transplantation from a matched sibling donor with a myeloablative conditioning consisting of fludarabine (160 mg/m^2) and busulfex (12.8 mg/kg). One month post-transplantation they developed classic grade 4 acute GVHD of the gastro-intestinal tract (GIT) confirmed by intestinal biopsy. They were refractory to cyclosporine and high-dose steroids, and was then given second line therapy consisting of mycophenolate mofetil followed by extra-corporeal photopheresis (ECP), from which a partial response was obtained. The patient then developed severe myopathy and became bed restricted. During tapering off of steroids they had relapse of grade 4 acute GVHD with GIT and skin involvement. They were refractory to high-dose steroids and thus started oral cannabidiol (CBD) 150 mg twice a day. […] CBD was stopped several weeks later upon remission. […] Nevertheless, they developed chronic GVHD for which they were given low dose cyclosporine and low dose prednisone.
A person with Philadelphia positive acute lymphoid leukemia in first complete remission underwent an allogeneic hematopoietic cell transplantation from a matched unrelated donor with reduced intensity conditioning consisting of fludarabine (150 mg/m^2), busulfex (12.8 mg/kg) and ATG (Fresenius, 15 mg/kg). Two months after transplantation, they developed generalized erythroderma ranked as stage 3 and grade 2 acute GVHD of the skin, which was confirmed by skin biopsy. Due to refractoriness to tacrolimus, systemic and topical steroids they started ECP with some improvement but without remission. They were still on tacrolimus and steroids when 11 months post-transplantation they had severe worsening of their skin rash with generalized erythroderma and desquamation ranked as stage 4 and grade 4 acute GVHD of the skin. They started oral CBD 150 mg twice a day and prednisone 40 mg once a day. […] CBD was stopped 2 months later after obtaining complete remission of acute GVHD.
A person with acute myeloid leukemia in first complete remission, underwent an allogeneic hematopoietic cell transplantation from a matched sibling donor with myeloablative conditioning consisting of busulfex (12.8 mg/kg) and cyclophosphamide (120 mg/kg). Eight months post-transplantation, leukemia relapsed. They received salvage chemotherapy followed by donor lymphocyte infusion (DLI) and achieved a complete hematologic remission. One month post DLI they developed jaundice with bilirubin levels of 11.5 mg % (normal≤1 mg %) and biopsy proven late onset acute GVHD of the liver ranked as stage 3 and grade 3. They were refractory to high-dose steroids and started oral CBD 150 mg twice a day.

[4] = test system: patients experiencing severe refractory chronic GVHD; test: Case studies: CBD for severe refractory chronic GVHD; assay type: in vivo, human; conditions: person
Procedure: This example describes cases studies that show the surprising efficacy of CBD treatment of patients experiencing severe refractory chronic GVHD.
A person with acute lymphoid leukemia in first complete remission, underwent an allogeneic hematopoietic cell transplantation from a matched unrelated donor with myeloablative conditioning consisting of total body irradiation (12 Gray), cyclophosphamide and ATG (Fresenius, 15 mg/kg). The patient developed an overlap syndrome (concomitant acute plus chronic GVHD features) during the first month after transplantation which was treated with cyclosporine and steroids until complete remission. Immunosuppression was stopped 5 months after transplantation. Eighteen months after transplantation they developed chronic extensive GVHD with involvement of the oral cavity, eyes, liver, joints and skin. Skin involvement progressed to sclerosis. They started again cyclosporine and oral steroids with no improvement. There was no further improvement with imatinib (Gleevec). […] Unexpectedly, Prednisone effective therapeutic dose was tapered off up to 7.5-10 mg QD (20-50% reduction in the steroid's dose).
A person with acute myeloid leukemia in second complete remission underwent an allogeneic hematopoietic cell transplantation from a matched sibling donor with myeloablative conditioning consisting of busulfex (12.8 mg/kg) and cyclophosphamide (120 mg/kg). The patient experienced relapse in the central nervous system and breasts 12 months after transplantation, received chemo-radiotherapy and achieved complete remission. Shortly after remission, they developed chronic extensive GVHD with severe involvement of the eyes, joint and skin. Skin involvement progressed to severe sclerosis with limited range of motion of the joints. They were unresponsive to cyclosporine and oral steroids and therefore they were stopped after few months.

[5] = test system: patients with late onset acute GVHD given steroids; test: Case studies: CBD reduces the effective dose of steroids (late onset acute GVHD); assay type: in vivo, human
Procedure: Person one with secondary acute myeloid leukemia in 1st complete remission, underwent and allogeneic hematopoietic cell transplantation from a matched unrelated donor with a myeloablative conditioning consisting of fludarabine (160 mg/m^2), busulfex (12.8 mg/kg) and ATG (Fresenius, 15 mg/kg). Eleven months after transplantation they developed jaundice with bilirubin level of 4.2 mg % and biopsy proven late onset acute GVHD of the liver ranked as stage 2 and grade 3. […] They started oral CBD 150 mg BID. […] Steroids could be tapered off to a low dose of 7.5 mg QD.
person two with refractory follicular lymphoma underwent an allogeneic hematopoietic cell transplantation from a matched unrelated donor with a reduced intensity conditioning consisting of fludarabine (150 mg/m^2), melphalan (100 mg/m^2) and ATG (Fresenius 15 mg/kg) and achieved a complete remission. Two years later they relapsed and received salvage immune-chemotherapy with bendamustine and rituximab followed by DLI and achieved a complete remission. One month later they were admitted with severe late onset acute GVHD with skin (rash) and upper (nausea and vomiting) plus lower gastrointestinal involvement (bloody diarrhea, crampy abdominal pain and severely inflamed and ulcerated mucosa). Biopsy proven GVHD was ranked as stage 3 of the skin and stage 4 and grade 4 acute GVHD of the GIT. They started cyclosporine and high-dose steroids. Despite skin response, GVHD of the GIT was refractory to prolonged systemic treatment of steroids. […] Prednisone was tapered off to 20 mg QD (40%)—found to be therapeutically effective.

[6] = test system: patient suffering from psychological or neurological disorders; conditions: doses of up to 1500 mg per day; cited from earlier work
[7] = of the 11 patients with chronic GVHD
[8] = with calcineurine inhibitor with or without oral prednisone
[9] = person, stage 3 grade 3 acute GVHD of the liver, oral CBD 150 mg twice a day

C=C(C)[C@@H]1CCC(C)=C[C@H]1c1c(O)cc(CCCCC)cc1O [CBD, 2-[(6R)-3-Methyl-6-prop-1-en-2-yl-1cyclohex-2-envyl]-5pentylbenzene-1,3-diol]
Cumulative incidence of relapse ([1]; 6 months after HCT): 22% | Non-relapse mortality ([1]; 6 months after HCT): 11.6% | Overall survival rate ([1]; 6 months after HCT): 76% | Cumulative incidence of relapse ([1]; 12 months after HCT): 31% | Non-relapse mortality ([1]; 12 months after HCT): 11.6% | Overall survival rate ([1]; 12 months after HCT): 70% | patients who developed grade 2 to 4 acute GVHD ([1]; 46 patients recruited, CBD prophylaxis): Six | Cumulative incidence of relapse ([1]; 100 days after HCT): 12% | Non-relapse mortality ([1]; 100 days after HCT): 8.1% | Overall survival rate ([1]; 100 days after HCT): 84% | effect on incidence and severity of GVHD (conclusion) ([1]; after allogeneic stem cell transplantation): reduces the incidence and severity of acute and chronic GVHD | patients in whom chronic GVHD occurred ([1]; among patients surviving more than 100 days after HCT (n=33)): 11 patients | Cumulative incidence rate of extensive chronic GVHD ([1]; at 1 year): 19% | Cumulative incidence rate of overall chronic GVHD ([1]; at 1 year): 43% | Cumulative incidence rate of grade 2 to 4 acute GVHD ([1]; at day 100): 12.4% | Cumulative incidence rate of grade 3 to 4 acute GVHD ([1]; at day 100): 5% | patients with limited chronic GVHD [1, 7]: 8 patients | patients with severe chronic GVHD [1, 7]: 3 patients | grade 3 to 4 toxicities related to CBD ([1]; oral CBD 2.5% in olive oil, day -7 to +30, 10 mg up to 150 mg twice a day, with cyclosporine + methotrexate prophylaxis): No grade 3 to 4 toxicities related to CBD were observed | toxicity and psychotropic effects (conclusion) ([1]; preventing acute and chronic GVHD): low toxicity and lack of psychotropic effects | Median time to onset of grade 2 to 4 acute GVHD ([1]; range 41 to 150 days): 60 days | median time to onset of chronic GVHD ([1]; range 125 to 335 days): 159 days | effect on severity of chronic GVHD (conclusion) [2]: reduces the severity of chronic GVHD | clinical improvement, patients with lung involvement [2, 8]: 2 out of 3 | clinical improvement, patients with oral involvement [2, 8]: 3 out of 3 | clinical improvement, patients with skin involvement [2, 8]: 6 out of 8 | effect on refractory steroid dose (conclusion of case studies) ([3]; acute Grade 3 and Grade 4 GVHD): rendered a refractory dose of a steroid-therapeutically effective | clinical response, grade 4 acute GVHD with GIT and skin involvement ([3]; person, refractory to high-dose steroids, oral CBD 150 mg twice a day, after 14 days): complete cessation of diarrhea and resolution of their skin rash | bilirubin level after treatment ([3]; person, stage 3 grade 3 acute GVHD of the liver, baseline 11.5 mg %, refractory to high-dose steroids, oral CBD 150 mg twice a day): 0.7-1.3 mg % | jaundice [3, 9]: resolved within few days | steroid tapering [3, 9]: tapered off until complete cessation | acute GVHD status at follow-up ([3]; person, eighteen months following cessation of treatment): no symptoms or signs of acute GVHD | skin rash and desquamation, stage 4 and grade 4 acute GVHD of the skin ([3]; person, oral CBD 150 mg twice a day and prednisone 40 mg once a day, on tacrolimus): improved promptly until complete resolution | clinical response, chronic extensive GVHD with severe sclerosis ([4]; cyclosporine and oral steroids stopped, oral CBD 75 mg BID, after several months): significant improvement of their skin and joints range of motion | clinical response, chronic extensive GVHD (oral cavity, eyes, liver, joints, skin sclerosis) ([4]; no improvement with cyclosporine, oral steroids, imatinib, oral CBD 75 mg twice a day, after several weeks): resolved their liver and oral GVHD and significantly improved skin sclerosis and joint range of motion | Prednisone effective therapeutic dose tapered off up to ([4]; oral CBD 75 mg twice a day): 7.5-10 mg QD | reduction in the steroid's dose ([4]; oral CBD 75 mg twice a day): 20-50% | jaundice and bilirubin, stage 3 and grade 3 acute GVHD of the liver ([5]; person one, bilirubin 8.5 mg % on tacrolimus and steroids, oral CBD 150 mg BID): Jaundice resolved gradually and bilirubin dropped to normal levels | steroid dose tapered off to ([5]; person one, oral CBD 150 mg BID): 7.5 mg QD | clinical response, stage 4 and grade 4 acute GVHD of the GIT ([5]; person two, refractory to prolonged systemic steroids, oral CBD 150 mg BID with steroids): very good partial response (VGPR) | response upon renewal of treatment ([5]; person two, methylprednisolone 0.5 mg/kg QD and CBD 150 mg BID): A second VGPR was obtained | Prednisone tapered off to ([5]; person two, oral CBD 150 mg BID): 20 mg QD | Prednisone tapered dose, printed percentage ([5]; person two, oral CBD 150 mg BID, prednisone 20 mg QD): 40% | outcome after discontinuing CBD ([5]; person two, two months later, CBD discontinued without doctors' approval): diarrhea resumed following discontinuing CBD | adverse effects in clinical studies [6]: without any significant adverse effects
